Reference: the supplement of paper PMC10307832

How the values were obtained:
Assay in all cases: relative viability (nuclei count vs DMSO), 5 days (fraction); higher = more cells survive
NCI-H650 = tested on: NCI-H650
In short: (§1)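 Relative viability divides the nuclei count in treated wells by that in vehicle wells. Lung cancer cell lines were seeded in 1536-well plates, dosed by pin tool the next day, and fixed and stained after 5 days in one step with final 0.05% Triton X-100, 1% formaldehyde and 1 ug/ml Hoechst. Dosing was a single drug or a fixed anchor-drug dose plus five library-drug doses (not always all listed) in √10 steps, and values are medians of duplicate plates imaged at 4×.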

NCI-H522 = tested on: NCI-H522
In short: as §1

NCI-H727 = tested on: NCI-H727
In short: as §1

NCI-H596 = tested on: NCI-H596
In short: as §1

NCI-H1395 = tested on: NCI-H1395
In short: as §1

EMC-BAC-2 = tested on: EMC-BAC-2
In short: as §1

NCI-H23 = tested on: NCI-H23
In short: as §1

NCI-H2347 = tested on: NCI-H2347
In short: as §1

NCI-H2087 = tested on: NCI-H2087
In short: as §1

BEN = tested on: BEN
In short: as §1

NCI-H1993 = tested on: NCI-H1993
In short: as §1

NCI-H647 = tested on: NCI-H647
In short: as §1

HARA = tested on: HARA
In short: as §1

NCI-H838 = tested on: NCI-H838
In short: as §1

201T = tested on: 201T
In short: as §1

NCI-H441 = tested on: NCI-H441
In short: as §1

NCI-H1666 = tested on: NCI-H1666
In short: as §1

NCI-H2126 = tested on: NCI-H2126
In short: as §1

LOU-NH91 = tested on: LOU-NH91
In short: as §1

HCC-44 = tested on: HCC-44
In short: as §1

NCI-H3122 = tested on: NCI-H3122
In short: as §1

LCLC-103H = tested on: LCLC-103H
In short: as §1

C[C@@H]1CN(CC(=O)Nc2ccc3c(c2)Cc2cccc(-c4cc(=O)cc(N5CCOCC5)o4)c2S3)C[C@H](C)O1 + NC(=O)Nc1cc(-c2cccc(F)c2)sc1C(=O)N[C@H]1CCCNC1 [AZD7762] (partner 0.2 µM)
relative viability (NCI-H650; first compound 0.04 µM): 0.981
relative viability (NCI-H650; first compound 0.1265 µM): 0.853
relative viability (NCI-H650; first compound 0.4 µM): 1.21
relative viability (NCI-H650; first compound 4 µM): 0.895
relative viability (NCI-H522; first compound 0.04 µM): 0.526
relative viability (NCI-H522; first compound 0.1265 µM): 0.743
relative viability (NCI-H522; first compound 0.4 µM): 0.908
relative viability (NCI-H522; first compound 4 µM): 0.814
relative viability (NCI-H727; first compound 0.04 µM): 0.525
relative viability (NCI-H727; first compound 0.1265 µM): 0.625
relative viability (NCI-H727; first compound 0.4 µM): 0.501
relative viability (NCI-H727; first compound 4 µM): 0.7
relative viability (NCI-H596; first compound 0.04 µM): 1.12
relative viability (NCI-H596; first compound 0.1265 µM): 1.1
relative viability (NCI-H596; first compound 0.4 µM): 1.1
relative viability (NCI-H596; first compound 4 µM): 1.06
relative viability (NCI-H1395; first compound 0.1265 µM): 0.425
relative viability (NCI-H1395; first compound 0.4 µM): 0.411
relative viability (NCI-H1395; first compound 4 µM): 0.406
relative viability (EMC-BAC-2; first compound 0.04 µM): 1.1
relative viability (EMC-BAC-2; first compound 0.1265 µM): 1.15
relative viability (EMC-BAC-2; first compound 0.4 µM): 1.08
relative viability (EMC-BAC-2; first compound 4 µM): 1.24
relative viability (NCI-H23; first compound 0.04 µM): 0.238
relative viability (NCI-H23; first compound 0.1265 µM): 0.22
relative viability (NCI-H23; first compound 0.4 µM): 0.226
relative viability (NCI-H23; first compound 4 µM): 0.18
relative viability (NCI-H2347; first compound 0.04 µM): 0.811
relative viability (NCI-H2347; first compound 0.1265 µM): 0.913
relative viability (NCI-H2347; first compound 0.4 µM): 0.625
relative viability (NCI-H2347; first compound 4 µM): 0.611
relative viability (NCI-H2087; first compound 0.04 µM): 1.26
relative viability (NCI-H2087; first compound 0.1265 µM): 1.17
relative viability (NCI-H2087; first compound 0.4 µM): 1.46
relative viability (NCI-H2087; first compound 4 µM): 0.954
relative viability (BEN; first compound 0.04 µM): 0.612
relative viability (BEN; first compound 0.1265 µM): 0.566
relative viability (BEN; first compound 0.4 µM): 0.625
relative viability (BEN; first compound 4 µM): 0.645
relative viability (NCI-H1993; first compound 0.04 µM): 0.752
relative viability (NCI-H1993; first compound 0.1265 µM): 0.737
relative viability (NCI-H1993; first compound 0.4 µM): 0.611
relative viability (NCI-H1993; first compound 4 µM): 0.55
relative viability (NCI-H647; first compound 0.04 µM): 0.346
relative viability (NCI-H647; first compound 0.1265 µM): 0.46
relative viability (NCI-H647; first compound 0.4 µM): 0.515
relative viability (NCI-H647; first compound 4 µM): 0.309
relative viability (HARA; first compound 0.04 µM): 0.296
relative viability (HARA; first compound 0.1265 µM): 0.259
relative viability (HARA; first compound 0.4 µM): 0.227
relative viability (HARA; first compound 4 µM): 0.329
relative viability (NCI-H838; first compound 0.04 µM): 0.802
relative viability (NCI-H838; first compound 0.1265 µM): 0.909
relative viability (NCI-H838; first compound 0.4 µM): 0.992
relative viability (NCI-H838; first compound 4 µM): 0.861
relative viability (201T; first compound 0.04 µM): 0.5
relative viability (201T; first compound 0.1265 µM): 0.544
relative viability (201T; first compound 0.4 µM): 0.586
relative viability (201T; first compound 4 µM): 0.478
relative viability (NCI-H441; first compound 0.04 µM): 1.28
relative viability (NCI-H441; first compound 0.1265 µM): 1.16
relative viability (NCI-H441; first compound 0.4 µM): 1.02
relative viability (NCI-H441; first compound 4 µM): 1.01
relative viability (NCI-H1666; first compound 0.04 µM): 0.891
relative viability (NCI-H1666; first compound 0.1265 µM): 0.891
relative viability (NCI-H1666; first compound 0.4 µM): 0.941
relative viability (NCI-H1666; first compound 4 µM): 0.765
relative viability (NCI-H2126; first compound 0.04 µM): 0.91
relative viability (NCI-H2126; first compound 0.1265 µM): 1.02
relative viability (NCI-H2126; first compound 0.4 µM): 0.964
relative viability (NCI-H2126; first compound 4 µM): 1.02
relative viability (LOU-NH91; first compound 0.04 µM): 0.639
relative viability (LOU-NH91; first compound 0.1265 µM): 0.775
relative viability (LOU-NH91; first compound 0.4 µM): 0.65
relative viability (LOU-NH91; first compound 4 µM): 0.706
relative viability (HCC-44; first compound 0.04 µM): 0.945
relative viability (HCC-44; first compound 0.1265 µM): 1.01
relative viability (HCC-44; first compound 0.4 µM): 1
relative viability (HCC-44; first compound 4 µM): 0.913
relative viability (NCI-H3122; first compound 0.04 µM): 1.01
relative viability (NCI-H3122; first compound 0.1265 µM): 0.922
relative viability (NCI-H3122; first compound 0.4 µM): 1.05
relative viability (NCI-H3122; first compound 4 µM): 0.733
relative viability (LCLC-103H; first compound 0.04 µM): 0.798
relative viability (LCLC-103H; first compound 0.1265 µM): 0.755
relative viability (LCLC-103H; first compound 0.4 µM): 0.761
relative viability (LCLC-103H; first compound 4 µM): 0.631
